Assays:
[1] = biological target: T1, DtolTA (PLP-dependent transaminase of fold type IV) (Desulfobacula toluolica, UniProt K0NPP0); experiment: half-reaction (deamination) kinetics, absorbance at […] nm; kmax/KD^app; assay type: biochemical; design: gene dat; (His)6-tagged DtolTA
T1 sequence (K0NPP0 1-286): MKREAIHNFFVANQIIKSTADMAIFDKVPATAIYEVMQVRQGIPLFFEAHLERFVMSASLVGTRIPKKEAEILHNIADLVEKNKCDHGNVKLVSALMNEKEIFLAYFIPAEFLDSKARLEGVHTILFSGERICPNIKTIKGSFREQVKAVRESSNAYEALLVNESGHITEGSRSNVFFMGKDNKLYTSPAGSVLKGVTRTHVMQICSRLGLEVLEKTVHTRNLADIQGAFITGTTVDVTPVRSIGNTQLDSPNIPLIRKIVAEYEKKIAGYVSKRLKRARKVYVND

[2] = biological target: T2, DtolTA (PLP-dependent transaminase of fold type IV) (Desulfobacula toluolica, UniProt K0NPP0, K91A); experiment: half-reaction kinetics of variant apoenzyme in the presence of PLP; kmax/KD^app at pH […]; assay type: biochemical
T2 construct: gene dat; (His)6-tagged DtolTA variant

[3] = biological target: T3, DtolTA (PLP-dependent transaminase of fold type IV) (Desulfobacula toluolica, UniProt K0NPP0, R144I); experiment: half-reaction (deamination) kinetics, absorbance at […] nm; kmax/KD^app; assay type: biochemical
T3 construct: gene dat; (His)6-tagged DtolTA variant

[4] = biological target: T1, DtolTA (PLP-dependent transaminase of fold type IV); experiment: half-reaction (deamination) kinetics, absorbance at […] nm; kmax/KD^app at pH […]; assay type: biochemical; design: gene dat; (His)6-tagged DtolTA
[5] = biological target: T3, DtolTA (PLP-dependent transaminase of fold type IV); experiment: tyrosine fluorescence quenching titration of apoenzyme; assay type: binding
Excerpt: tyrosine fluorescence quenching titration of apoenzyme on DtolTA (PLP-dependent transaminase of fold type IV) | apparent dissociation constant Kd(PLP) for the R144I holoenzyme were similar to those of WT

[6] = biological target: T1, DtolTA (PLP-dependent transaminase of fold type IV); experiment: crystal structure (9J0V […] Å; also 9J0U […] Å); tyrosine fluorescence quenching titration of apoenzyme; assay type: binding; design: gene dat; full length, 286 a.a; (His)6-tagged for Kd, tag removed for crystals
[7] = biological target: TA from Haliscomenobacter hydrossis (Haliscomenobacter hydrossis); experiment: SEC; gel filtration of the purified enzyme; column and buffer not given

**Q.** `C[C@@H](N)c1ccccc1` [(R)-1-phenylethylamine] was tested. Which “half-reaction (deamination) kinetics, absorbance at 411 nm; kmax/KD^app” value [1] did it give?
**A.** 0.015 ± 0.005 M⁻¹ s⁻¹

**Q.** How did the “half-reaction kinetics of variant apoenzyme in the presence of PLP; kmax/KD^app” value [2] turn out when `C[C@@H](N)C(=O)O` [D-alanine] was run?
**A.** 2.4 ± 0.7 M⁻¹ s⁻¹

**Q.** What about the “half-reaction (deamination) kinetics, absorbance at 411 nm; kmax/KD^app” value [3] of the same compound?
**A.** 29 ± 1 M⁻¹ s⁻¹

**Q.** What about the “half-reaction (deamination) kinetics, absorbance at 411 nm; kmax/KD^app at pH 8.” value [4] of the same compound?
**A.** 37 ± 1 M^−1s^−1

**Q.** For `N[C@H](CCC(=O)O)C(=O)O` [D-glutamate], which “half-reaction (deamination) kinetics, absorbance at 411 nm; kmax/KD^app” value [1] is on record?
**A.** 0.020 ± 0.001 M⁻¹ s⁻¹

**Q.** With `Cc1ncc(COP(=O)(O)O)c(C=O)c1O` [pyridoxal-5′-phosphate] as the compound, how does the Kd [5] read?
**A.** 43 ± 2 µM

**Q.** What about the Kd [6] of the same compound?
**A.** 30 ± 4 µM

**Q.** For “TA from Haliscomenobacter hydrossis (enzyme)”, which stoichiometry N [7] is on record?
**A.** 2

Reference: PMC11673721 (Biomolecules, 2024)
